Reference: patent EP3724209B1, “ELASTOMERIC PEPTIDE” (Politecnico di Milano, priority 2017, dated 2019)
Where a SMILES comes first, the peptide text is derived from it. Where no end group is shown, it is not given here. [ ]: non-standard residue; d: D form. Tyr(3,5-Br2) = N[C@@H](Cc1cc(Br)c(O)c(Br)c1)C(=O)O

Legend:
[1] = Dynamic Light Scattering aging study (autocorrelation lag time); assay type: physicochemical; details: 10 mM in water
Description: Dynamic Light Scattering measurements were performed on an ALV/CGS-3 Platform-based Goniometer System equipped with an ALV-7004 correlator and an ALV/CGS-3 goniometer. The signal was detected by an ALV-Static and Dynamic Enhancer detection unit. The light source was the second harmonic of a diode-pumped Coherent Innova Nd:YAG laser (λ = 532 nm), linearly polarized in the vertical direction. Measurements were performed at 25°C. Approximately 1 ml of sample solution was transferred into the cylindrical Hellma scattering cell.
The dynamic information on structures present in the peptide solutions were derived from the normalized autocorrelation function g2 (q, τ) of the scattered intensity, which is measured according to g2 (q, τ) = (〈I(q, t)I(q,t+τ)〉)/((〈I(q, t)〉)^2) [formula] where q is the scattering vector, τ is the relaxation time and I is the scattered intensity. Higher relaxation times correspond to larger self-assembled structures. […] Results are reported in Figure 7, as graphs showing the autocorrelation functions of wild type (panel A) or halogenated (panel B) oligopeptide 10 mM in water at 90°C. The autocorrelation functions at 90°C show increasing Lag Time, i.e., increasing dimensions of the self-assembled structures, over time. Table 1 summarizes and compares the results, showing that halogenated oligopeptide form bigger structures compared to the wild type one. This is a further indication that bromine atoms play a role in the aggregation behavior of the peptide sequence. The same aging study was performed in buffer at pH 7, with similar results (data not shown).

solubility test = assay type: physicochemical; details: for aspect of solution after cooling: 100 mM solution; for aspect of solution after heating: 100 mM solutions (5 mg in 50 µl); for solubility: buffers at pH 3, 7, and 12 (10 mM) and pure water
Description: The isoelectric point (calculated on http://web.expasy.org/compute-pi/) of SDSYGAP (SEQ ID no. 6), comparative, and an oligopeptide according to the present invention, i.e., SDS-Y(3,5 Br)-GAP is 3.8. Three buffers at pH 3, 7, and 12 (10 mM concentration) and pure water were used as solvent for the two oligopeptides.

[2] = test system: HeLa (Human cervical cancer cells); assay: CellTiter-Glo Luminescent Cell Viability Assay; assay type: cell-based; details: 24 hours incubation
Description: HeLa (Human cervical cancer cells) were grown in DMEM supplemented with 1 mM sodium pyruvate, 10 mM HEPES buffer, 100 U/mL penicillin, 0.1 mg/mL streptomycin, 2 mM glutamine and 10% FBS (hereafter referred to as complete medium), at 37°C in a 5% CO2 humidified atmosphere. Cells were splitted the day before seeding and used within eight passages. The cells were seeded at a density of 7000 cell/cm^2. For evaluating cell viability, the day after the seeding the cell medium was replaced with medium containing the wild type or the halogenated oligopeptides and cells were incubated for 24 hours.

[3] = test system: Pseudokirchneriella sub capitata
Description: An ecotoxicity test on Pseudokirchneriella sub capitata was performed to evaluate I% (inhibition percentage effect) and IC50 (concentration which determines the 50% inhibition of growth on the population) of the halogenated peptide SDS-Y(3,5 Br)-GAP.
The halogenated peptide SDS-Y(3,5 Br)-GAP was dissolved in water at 100 mg/l and tested at the following concentrations: 50 mg/l, 25 mg/l, 12.5 mg/l and 6.25 mg/l. Each sample was tested in triplicate.
After 72 hours of incubation with the sample or controls, a spectrophotometric test was performed at 670nm as a measure of cell density.

SDSYGAP [SDSYGAP]
Lag time ([1]; aging time t=0): 1.512 ms | Lag time ([1]; aging time t=1 week): 3.826 ms | Lag time ([1]; aging time t=24 h): 2.859 ms | Lag time ([1]; aging time t=48 h): 1.919 ms | aspect of solution after cooling (solubility test): still clear | aspect of solution after heating (solubility test): completely clear | solubility (solubility test): good solubility properties in all the tested conditions | cell viability [2]: not toxic even at high concentrations

C[C@H](NC(=O)CNC(=O)[C@H](Cc1cc(Br)c(O)c(Br)c1)NC(=O)[C@H](CO)NC(=O)[C@H](CC(=O)O)NC(=O)[C@@H](N)CO)C(=O)N1CCC[C@H]1C(=O)O [SDS-Y(3,5 Br)-GAP] (H-SDS[Tyr(3,5-Br2)]GAP-OH)
ecotoxicity [3]: not ecotoxic | IC50 (concentration which determines the 50% inhibition of growth on the population) ([3]; 72 hours of incubation): 54 µg/mL | aspect of solution after cooling (solubility test): milky | aspect of solution after heating (solubility test): completely clear | solubility (solubility test): good solubility properties in all the tested conditions | cell viability [2]: not toxic even at high concentrations
